Source: patent US20250360124A1, “NOVEL RAS INHIBITORS” (KHR BIOTEC GMBH, priority 2022, published 2025)
Where a name gives a salt, the structure may show the parent alone.

Assays:
Format in all cases: cell-based
HRAS G12V = molecular target: T1, HRAS G12V (Homo sapiens, UniProt P01112, G12V); test: NanoBit assay for RAS activation (LgBiT-RAS / SmBiT-CRAF RBD); settings: H-RAS G12V with CRAF RBD; 2 h with inhibitor, serum free DMEM; FIG. 1
T1 construct: K, N and HRAS G12V (full length) was cloned with Xho I and Bgl II to LgBit; expressed in transfected cells
T1 sequence (P01112 whole entry G12V): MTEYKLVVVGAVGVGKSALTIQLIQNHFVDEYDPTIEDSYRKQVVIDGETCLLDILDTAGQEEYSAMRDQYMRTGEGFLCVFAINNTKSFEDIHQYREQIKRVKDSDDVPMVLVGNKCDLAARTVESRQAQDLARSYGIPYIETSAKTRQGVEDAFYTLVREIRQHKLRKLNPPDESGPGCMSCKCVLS
Protocol: (§1) FIG. 1a) and 1b): NanoBit assay for RAS activation (KRAS G12V, NRAS G12V, HRAS G12V)
(§2) N-terminal LgBiT and C-terminal SmBIT construct was purchased from Promega and K, N and HRAS G12V (full length) was cloned with Xho I and Bgl II to LgBit and CRAF Ras binding domain (1-149) was cloned with EcoRI and Bgl II to SmBit. For transfections, 1 μg or 2 μg of (12 well/6 well) plasmids were transfected into cells with 0.5 mM of PEI reagent in 100 μl or 200 μl PBS. One day after transfection, cells were harvested and seeded into 96 well white plates, half area (Greiner). After an additional day the medium was changed to serum free DMEM and the cells were incubated for 2 h with inhibitors. NanoGlo assay was performed according to the manufacturer's instructions. The luminescence was measured using Tecan infinite (Tecan). DMSO-treated cells were set as 1. The results shown are mean mean±SEM from at least 3 independent experiments.

KRAS G12V = molecular target: T2, KRAS G12V (Homo sapiens, UniProt P01116, G12V); test: as above; settings: K-RAS G12V with CRAF RBD; 2 h with inhibitor, serum free DMEM; FIG. 1
T2 construct: K, N and HRAS G12V (full length) was cloned with Xho I and Bgl II to LgBit; expressed in transfected cells
T2 sequence (P01116 1-188 isoform P01116-2 G12V): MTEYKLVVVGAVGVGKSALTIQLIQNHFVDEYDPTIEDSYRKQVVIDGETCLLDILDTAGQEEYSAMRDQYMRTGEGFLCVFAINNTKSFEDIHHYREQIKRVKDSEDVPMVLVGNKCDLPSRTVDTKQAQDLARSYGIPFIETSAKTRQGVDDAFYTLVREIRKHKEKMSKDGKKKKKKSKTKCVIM
Protocol: as §1, §2

NRAS G12V = molecular target: T3, NRAS G12V (Homo sapiens, UniProt P01111, G12V); test: as above; settings: N-RAS G12V with CRAF RBD; 2 h with inhibitor, serum free DMEM; FIG. 1
T3 construct: K, N and HRAS G12V (full length) was cloned with Xho I and Bgl II to LgBit; expressed in transfected cells
T3 sequence (P01111 whole entry G12V): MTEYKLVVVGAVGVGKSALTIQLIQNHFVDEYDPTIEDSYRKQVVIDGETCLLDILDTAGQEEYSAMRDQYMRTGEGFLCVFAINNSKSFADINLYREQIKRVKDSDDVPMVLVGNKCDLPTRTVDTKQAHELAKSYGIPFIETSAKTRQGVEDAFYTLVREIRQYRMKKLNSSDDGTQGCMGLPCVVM
Protocol: as §1, §2

ASPC1 cells = test: Soft agar colony formation assay, MTT readout; settings: Homo sapiens, growth in soft agar, colonies stained with MTT, absorbance 570 nm
Protocol: (§3) FIGS. 2a) and 2b): MTT assay for cell growth
(§4) Metabolic activity was quantified using Cell Proliferation Kit I (Roche, Basel, Switzerland). Cells were seeded in 96-well cell culture plates, using 5000 cells per well for NCI-H358 cells. After treatment, 10 μl of MTT solution was added and incubated for 2 h in CO2 incubator. Then 100 μl of solubilization buffer was added to each well and incubated overnight in CO2 incubator. Cell viability, assessed by the amount of metabolized MTT, was quantified by measuring absorbance at 570 nm.
(§5) MTT assay for the growth of different tumor cell lines with RAS mutations in soft agar with Quinacrine dihydrochloride.
(§6) NCI-H358, H358, H2122, ASPC-1, HCT-116, T24 and HT1080 cells were used for the soft agar colony formation assay. After the treatment with Quinacrine dihydrochloride hydrate, the colonies were stained with MTT and the value was quantified by measuring absorbance at 570 nm after solubilization. The results represent mean±SEM from 3 independent experiments.

HCT-116 cells = test: Soft agar colony formation assay, MTT readout; settings: Homo sapiens, growth in soft agar, colonies stained with MTT, absorbance 570 nm
Protocol: as §3, §4, §5, §6

HT1080 cells = test: Soft agar colony formation assay, MTT readout; settings: Homo sapiens, HT-1080, growth in soft agar, colonies stained with MTT, absorbance 570 nm
Protocol: as §3, §4, §5, §6

NCI-H2122 cells = test: Soft agar colony formation assay, MTT readout; settings: Homo sapiens, growth in soft agar, colonies stained with MTT, absorbance 570 nm
Protocol: as §3, §4, §5, §6

NCI-H358 cells = test: Soft agar colony formation assay, MTT readout; settings: Homo sapiens, growth in soft agar, colonies stained with MTT, absorbance 570 nm
Protocol: as §3, §4, §5, §6

T24 cells = test: Soft agar colony formation assay, MTT readout; settings: Homo sapiens, T-24, growth in soft agar, colonies stained with MTT, absorbance 570 nm
Protocol: as §3, §4, §5, §6

sNF96.2 cells = test: MTT assay for cell viability in 96 well plate, RASOpathie model; settings: 48 h treatment
KRAS dependent cells = test: MTT assay for cell viability in 96 well cell culture plate; settings: 48 h treatment, KRAS dependent cells incl. G12C/Y96D mutation, FIG. 3a
Protocol: FIGS. 3a) and 3b): MTT assay for cell viability in 96 well cell culture plate Cells were treated with Quinacrine dihydrochloride hydrate for 48 h and cell viability was evaluated by MTT assay. DMSO-treated cells were set as 1. The results shown are mean±SEM from 3 independent experiments.
G12C/Y96D mutation is normally seen in patients, who develop resistance to G12C inhibitor. Thus, patients, who are resistant to G12C inhibitors can still be treated with Quinacrine dihydrochloride.

inhibition of RAS activation (NanoBit luminescence) (HRAS G12V): inhibits
inhibition of RAS activation (NanoBit luminescence) (KRAS G12V): inhibits
inhibition of RAS activation (NanoBit luminescence) (NRAS G12V): inhibits
IC50 (ASPC1 cells): 4.28 µM
IC50 (HCT-116 cells): 5.5 µM
IC50 (HT1080 cells): 149 µM
IC50 (NCI-H2122 cells): 2.48 µM
IC50 (NCI-H358 cells): 5.1 µM
IC50 (T24 cells): 4 µM
Structure (SMILES): CCN(CC)CCCC(C)Nc1c2ccc(Cl)cc2nc2ccc(OC)cc12 (centres unmarked) [Quinacrine dihydrochloride hydrate, 4-N-(6-chloro-2-methoxyacridin-9-yl)-1-N,1-N-diethylpentane-1,4-diamine;hydrate;dihydrochloride]
IC50 (sNF96.2 cells): 4.51 µM
inhibition of cell viability (KRAS dependent cells): inhibits KRAS dependent cells irrespective of the presence of mutation
